Measurements published in ChEMBL document CHEMBL3297683.
Calls of active or inactive are those of the source. The calls are words filed in the database; no cut-off is given here.

Key:
[1] = target: Lactoylglutathione lyase (Homo sapiens) (UniProt Q04760); experiment: Competitive inhibition of human GLO1 expressed in Escherichia coli JM103 at 0.1 to 0.7 mM by Dixon plot analysis
[2] = target: Lactoylglutathione lyase (Homo sapiens) (UniProt Q04760); experiment: Inactivation of human GLO1 expressed in Escherichia coli JM103 at 4.7 to 80.6 uM after 5 to 180 secs

Lactoylglutathione lyase (Homo sapiens), sequence (Q04760 2-184 limits assumed): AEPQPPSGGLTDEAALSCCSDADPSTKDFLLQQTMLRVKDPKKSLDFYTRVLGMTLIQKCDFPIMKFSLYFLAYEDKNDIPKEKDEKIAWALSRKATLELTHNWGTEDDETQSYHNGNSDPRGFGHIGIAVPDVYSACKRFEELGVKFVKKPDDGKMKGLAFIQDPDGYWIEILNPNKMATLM

For `N[C@@H](CCC(=O)N[C@@H](CSCC(=O)OCCCCOC(=O)CBr)C(=O)NCC(=O)O)C(=O)O`, the inhibition [1] was “inactive” and the Activity [2] was “Active”.
